The experiment has as its system E-selectin-IgG chimera. The following applies: 5 mM EDTA; shear stress 1 dyn/cm^2.

Protocol: Cells (10^6/ml) were perfused at room temperature through the chamber at a shear stress of 1 dyn/cm^2 in binding medium alone or in the presence of 5 mM EDTA (Erg+EDTA). The number of cells which accumulated and maintained rolling at the end of 1 min of perfusion in two microscopic fields was determined as described in materials and methods. […] After 1 min perfusion, adherent cells were subjected to an abrupt 5-fold increase of shear stress and the number of cells that remained bound for at least 5 sec after the increase of shear was determined. The mean number +/− range of cells accumulated at 1 dyn/cm^2 and of accumulated cells remaining stably bound at 5 dyn/cm^2 on two fields of view are shown for the E48^lo and E48^hi cells. […] Data are representative of four independent experiments.
Cultured IUC cells grown as monolayers were harvested by a 10 min incubation with H/H medium (Hanks Balanced Salt Solution, HBSS (Sigma Israel Chemicals Ltd., Rehovot, Israel), containing BSA (2 mg/ml, fraction V, Sigma) and 10 mM HEPES, pH 7.4), supplemented with 5 mM EDTA at 37 Washed cells were resuspended in the same medium at a concentration of 1×10^7 cells/ml and kept at room temperature until use. Cells were diluted 20 fold into binding medium (H/H supplemented with 2 mM Ca^2+) and immediately perfused through the flow chamber. […]

On to `O=C(O)CN(CCN(CC(=O)O)CC(=O)O)CC(=O)O` [EDTA], for which the “adhesive interactions of E48^hi cells with E-selectin coated substrate” value was “eliminated”.
